Reference: patent US6344455B1 (Warner-Lambert Company, priority 1998, dated 2002)
Where two headings read alike, the source gives them in different places.

Tests used:
[1] = system: heregulin-mediated tyrosine phosphorylation in MDA-MB-453 cells; assay: Heregulin-dependent tyrosine phosphorylation assay, MDA-MB-453 cells, western blot; assay type: cell-based; details: Homo sapiens, 2 hours compound, 10 ng/mL heregulin 5 minutes, read-out: Heregulin-Medidated Tyrosine Phosphorylation IC50
Description: Proteins in the lysate were separated by polyacrylamide gel electrophoresis and electrophoretically transferred to nitrocellulose. […] Band intensities were determined with a laser densitometer.

[2] = system: human epidermoid carcinoma, A431; assay: In vivo tumor inhibition assay, A431 tumor fragments s.c. in nude mice; details: for Tumor Growth Delay / Tumor Growth Inhibition: 15 consecutive days; for Tumor Growth Delay: isethionate salt in water, T-C to 750 mg; for Tumor Growth Inhibition: growth delay divided by number of treatments times 100%
Description: The human epidermoid carcinoma, A431, was propagated in vivo by serial transplantation. This tumor model was selected for these studies because of its known dependence upon the EGF receptor for growth and its early stage responsiveness to monoclonal antibody therapy in vivo. In this experiment nude mice weighing 18-22 grams were implanted subcutaneously with 30 mg A431 tumor fragments in the region of the right axilla on Day 0. Tumors were allowed to grow to a mass of 100 to 150 mg, at which time the tumor bearing animals were randomized and distributed into treatment cages. […] The isethionate salts can be prepared by titrating the compounds into solution with 2 equivalents of isethionic acid. Treatment was based on average group weight. The control animals received water. Evaluation of the experiment was based on tumor growth delay, T-C, defined as the difference, in days, for the treated and control tumors to reach an evaluation size of 750 mg. Data can also be represented as the percentage of tumor growth inhibition, defined as the tumor growth delay divided by the number of treatments times 100%. […] Statistical analysis was performed using JMP for Macintosh (SAS Institute, Inc., Cary, N.C. ).

[3] = system: VEGF secretion from A431 cells; details: for VEGF secretion: 48 hours

C=CC(=O)Nc1cc2c(Nc3ccc(F)c(Cl)c3)ncnc2cc1OCCCN1CCOCC1 [compound 1, N-[4-(3-chloro-4-fluoro-phenylamino)-7-(3-morpholin-4-yl-propoxy)-quinazolin-6-yl]-acrylamide]
IC50 [1]: 9 nM | Tumor Growth Delay ([2]; 5 mg/kg perorally): 53.2 days | Tumor Growth Inhibition ([2]; 5 mg/kg perorally): 355% | Tumor Growth Delay ([2]; 18 mg/kg perorally): 41.3 days | Tumor Growth Inhibition ([2]; 18 mg/kg perorally): 275% | antitumor response T-C ([2]; A431 tumors in vivo, dose not given): 53 days | VEGF secretion ([3]; 10 ng/mL EGF stimulated, 0.1 μM compound): 1490 ± 170 pg/10^5 cells ± SE | VEGF secretion ([3]; 10 ng/mL EGF stimulated, 0.5 μM compound): 560 ± 29 pg/10^5 cells ± SE | effect on EGF- or TGF-alpha stimulated VEGF secretion ([3]; 0.5 μM, in words): blocked | VEGF secretion ([3]; TGF-alpha stimulated, 0.1 μM compound): 1976 ± 37 pg/10^5 cells ± SE | VEGF secretion ([3]; TGF-alpha stimulated, 0.5 μM compound): 766 ± 75 pg/10^5 cells ± SE | effect on the basal level of VEGF secretion from A431 cells ([3]; basal, in words): appeared to inhibit | VEGF secretion ([3]; serum free media (basal), 0.1 μM compound): 280 ± 41 pg/10^5 cells ± SE | VEGF secretion ([3]; serum free media (basal), 0.5 μM compound): 250 ± 46 pg/10^5 cells ± SE
